Patent US8148578B2, “Fast acting naratriptan composition” (Emisphere Technologies Inc., priority 2008, dated 2012)
Like-named read-outs stand apart in the source and are kept apart here.

Key:
[1] = Oral pharmacokinetics of naratriptan in rats, alone or combined with an absorption enhancer carrier; assay type: in vivo, Sprague-Dawley rats; conditions: Nar 10 mg/kg, carrier 200 mg/kg
Description: In the present invention, the delivery system is the pharmaceutical formulations which may be in the form of a liquid or solid. Liquid formulations may be water-based. The absorption enhancer was dissolved in deionized water. 10 N NaOH solution was used to help dissolving acid form carriers. HCl was added to lower pH of the absorption enhancer stock solution if the pH was higher than 7.4. Naratriptan powder was added to the absorption enhancer solution 5 minutes before dosing. The final concentration of drug was 10 mg/ml, and the final concentration of carrier was 200 mg/ml for the study.
Naratriptan is also designated Nar. Naratriptan was administered alone to rates orally as a control. For oral dosing, single solutions were administrated at time 0, in the following manner: (a) each absorption enhancer carrier (200 mg/kg) in combination with Nar (10 mg/kg) was administered orally to rats; and (b) Nar (10 mg/kg) alone was administered orally to rats. Blood samples were collected by retro-orbital bleed under CO2 anesthesia pre-dosing (0 minute), and 5, 15, 30, 40, 50, 60, 120 and 240 minutes after dosing. […] Both, the Nar/2-HPOD and Nar/2-HPHM combination took approximately ½ the time of Naratriptan alone. […] Also the mean Cmax value of the Nar/4-PPED combination was approximately 2-fold higher compared to that obtained following Naratriptan alone.

[2] = cited from earlier work
[3] = Sprague-Dawley, rat, naratriptan in plasma, fasted male rats, single oral dose, n=5

Structure (SMILES): CNS(=O)(=O)CCc1ccc2[nH]cc(C3CCN(C)CC3)c2c1 [Naratriptan]
- time of mean peak Naratriptan plasma concentration post-dose ([1]; Example 1, rats, oral): 27 min
- Cmax [1, 3]: 1050 ng/mL
- Tmax [1, 3]: 27 min
- AU Clast ([1]; naratriptan in plasma, fasted male rats, single oral dose, n=5): 62851 ng·min/mL
- time to peak concentrations ([2]; 2.5 mg tablet orally): 2 to 3 h
- Tmax ([2]; during a migraine attack): 180 to 240 min
- oral bioavailability ([2]; naratriptan tablets): about 70%
